The assay deals with T1, KIT (Homo sapiens, UniProt P10721).
T1 construct: purchased Thermo Fisher Scientific (Life Technologies) SelectScreen
Kind of assay: SelectScreen Z'LYTE. The format is biochemical. An outline of the steps: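 NU5455 was profiled across the SelectScreen Broad panel of kinase activity and binding assays. Z'LYTE reactions such as CSF1R ran at apparent Km ATP, while the Adapta CAMK1 assay used ATP listed as 10. Values are given as percent.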

Structures are written as SMILES.

T1 sequence (P10721 26-976): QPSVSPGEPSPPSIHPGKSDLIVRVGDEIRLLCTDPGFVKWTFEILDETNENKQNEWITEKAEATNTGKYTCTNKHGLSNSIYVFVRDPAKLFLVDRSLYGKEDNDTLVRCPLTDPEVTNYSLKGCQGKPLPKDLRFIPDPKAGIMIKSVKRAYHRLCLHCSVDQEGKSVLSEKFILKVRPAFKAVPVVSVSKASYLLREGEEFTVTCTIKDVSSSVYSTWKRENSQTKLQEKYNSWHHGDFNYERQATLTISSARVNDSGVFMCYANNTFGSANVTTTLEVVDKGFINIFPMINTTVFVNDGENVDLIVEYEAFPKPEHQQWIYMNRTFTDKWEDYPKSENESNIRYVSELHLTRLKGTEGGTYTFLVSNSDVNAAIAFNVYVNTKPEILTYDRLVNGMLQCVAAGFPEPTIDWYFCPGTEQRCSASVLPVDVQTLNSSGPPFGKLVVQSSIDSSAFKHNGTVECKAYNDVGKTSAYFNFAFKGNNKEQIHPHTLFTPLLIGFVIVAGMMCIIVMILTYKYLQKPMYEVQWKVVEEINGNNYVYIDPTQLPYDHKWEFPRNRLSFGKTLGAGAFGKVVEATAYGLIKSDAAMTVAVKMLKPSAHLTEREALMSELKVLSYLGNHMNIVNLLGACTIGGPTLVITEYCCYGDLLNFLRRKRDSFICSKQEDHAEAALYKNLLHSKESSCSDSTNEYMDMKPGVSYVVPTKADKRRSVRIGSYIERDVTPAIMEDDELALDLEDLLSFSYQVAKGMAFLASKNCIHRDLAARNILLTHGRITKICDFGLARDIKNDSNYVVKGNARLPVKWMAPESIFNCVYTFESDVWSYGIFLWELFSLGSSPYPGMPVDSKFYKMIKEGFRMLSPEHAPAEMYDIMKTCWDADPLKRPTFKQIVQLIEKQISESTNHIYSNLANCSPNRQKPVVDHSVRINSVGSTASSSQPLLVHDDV

`CN(C(=O)CN1CCOCC1)c1ccc2sc3c(-c4cccc5c(=O)cc(N6CC7CCC(C6)O7)oc45)cccc3c2c1` [NU5455] gave an inhibition at 1 µM of 5.3%.
